Measured values published in PMC11099041, “Tissue distribution and retention drives efficacy of rapidly clearing VHL-based PROTACs” (Communications Medicine, 2024).

What was measured:
[1] = rat, in vivo, iv, 4 mg/kg
Description: Male Sprague Dawley rats, intact or bile-cannulated, were from Envigo RMS, Inc. The animals were acclimated to study conditions for five days prior to dose administration. During acclimation, animals were individually housed in suspended, stainless steel, wire-mesh cages. During the test period, animals were placed in Nalgene cages designed for the collection of urine, feces, and bile. Certified Rodent Diet #2016C or 2016CM (Envigo RMS, Inc.) were provided ad libitum. Water was provided fresh daily. Environmental controls for the animal room were set to maintain a temperature of 20-26 °C, a relative humidity of 50 ± 20%, and a 12-hour light/12-hour dark cycle. […] The vehicle for the IV dose was 20% 2-hydroxypropyl-β-cyclodextrin (HP-β-CD) in 50 mM sodium acetate buffer, pH 4.0. […] The supernatant was removed, and the formulation appeared to be a very slight yellow solution. Stability was checked by HPLC analysis of pre- and post-dose aliquots. Animals were not fasted. The actual amount administered was determined by weighing the dose syringe before and after dose administration. The IV dose of 4 mg/kg was administered via a tail vein. For QWBA rats, one animal/time point was prepared for QWBA at approximately 0.25, 1, 4, 8, 24, 48, 168, and 336 hours. […] Blood was maintained on wet ice until being aliquoted for radioanalysis and centrifuged to obtain plasma. […] Each carcass was drained, blotted dry, placed into an appropriately labeled bag, and placed on dry ice or stored at ~-70 °C for at least 2 hours. The frozen carcasses were embedded in chilled carboxymethylcellulose and frozen into blocks. Embedded carcasses were stored at ~-20 °C in preparation for autoradiographic analysis. The samples were stored at -70 °C before analysis. […] All samples were analyzed for radioactivity in PerkinElmer Model 2910TR liquid scintillation counters for at least 5 min or 100,000 counts. Each sample was homogenized or mixed, as applicable, before radioanalysis in duplicate within 10% of the mean value. Scintillation counting data were automatically corrected for counting efficiency using the external standardization technique and an instrument-stored quench curve generated from a series of sealed quenched standards. […] The samples were allowed to sit at least overnight to allow any foaming to dissipate. Ultima Gold XR scintillation cocktail was added, and the samples were shaken and analyzed by liquid scintillation counting (LSC). Plasma was also analyzed by LSC. The urine, bile, cage rinse, and cage wash samples were mixed by shaking, and duplicate weighed aliquots were analyzed directly by LSC. The mean time concentration profile was generated for each group, and an overall AUC was then calculated with these sparse samples of rats and mice. […] The following parameters were estimated whenever possible: C0, Back-extrapolated concentration at time 0; Cmax, Maximum observed concentration; Tmax, Time of maximum observed concentration; AUC0-t, Area under the concentration-time curve from hour 0 to the last measurable concentration, estimated by the linear trapezoidal rule; AUC0-336, Area under the concentration-time curve from hour 0 to hour 336, estimated by the linear trapezoidal rule; DN AUC0-336, Dose normalized AUC0-336, calculated as AUC0-336/dose level; AUC0-∞, Area under the concentration-time curve from hour 0 to infinity (Day 1 only), calculated as follows: AUC0-∞ = AUC0-t + Ct/λz, where Ct is the last measurable concentration and λz is the elimination rate constant; t1/2, Elimination half-life, determined by ln(2)/λz; CL, Clearance, calculated as dose/AUC0-inf; Vd, Volume of distribution based on the terminal phase, calculated as: dose/(λz × AUC0-∞) Nominal doses and sampling times were used. […] Embedded zeros were excluded from kinetic analysis.

CYP1A2 = target: T1, CYP1A2 (Homo sapiens, UniProt P05177); assay: Reversible P450 inhibition in HLM; format: biochemical; settings: human liver microsomes, pH 7.4, probe tacrine, substrate Tacrine
T1 construct: phosphate buffer (100 mM, pH 7.4) containing human liver microsomes (HLM); from tissue; host or cells: human liver microsomes
T1 sequence (P05177 1-516): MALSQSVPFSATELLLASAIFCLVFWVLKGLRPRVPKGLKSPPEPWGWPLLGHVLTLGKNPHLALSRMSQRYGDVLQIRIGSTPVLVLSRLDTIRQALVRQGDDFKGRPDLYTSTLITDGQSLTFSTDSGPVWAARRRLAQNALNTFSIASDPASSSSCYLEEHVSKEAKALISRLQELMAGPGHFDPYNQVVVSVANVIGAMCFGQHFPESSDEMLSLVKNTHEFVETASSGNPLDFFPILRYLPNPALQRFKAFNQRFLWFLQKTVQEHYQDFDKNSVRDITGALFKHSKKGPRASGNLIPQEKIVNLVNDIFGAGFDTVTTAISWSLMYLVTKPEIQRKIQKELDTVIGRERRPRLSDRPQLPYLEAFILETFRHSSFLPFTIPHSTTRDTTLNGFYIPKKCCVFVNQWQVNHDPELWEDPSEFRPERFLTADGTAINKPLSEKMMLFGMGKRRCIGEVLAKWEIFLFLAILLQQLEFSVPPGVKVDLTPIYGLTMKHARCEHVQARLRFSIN
Experimental: (§1) The reversible P450 inhibition assay was conducted in triplicate on a BioCel 1200 System, V11 (Agilent, CA), as previously described by Kosaka, et al.[28] […] Individual P450 specific substrates included midazolam for CYP3A4/5, dextromethorphan for CYP2D6, S-(+)-mephenytoin for CYP2C19, S-(-)-warfarin for CYP2C9, paclitaxel for CYP2C8, and tacrine for CYP1A2. P450 activity was expressed as the peak area ratio of a P450-specific metabolite formed relative to its internal standard, and inhibition percentage was calculated from P450 activity of samples relative to the solvent control. Inhibition data were processed using Prism (GraphPad Software, San Diego, CA) to calculate IC50 values for each P450 enzyme.

CYP2C8 = target: T2, CYP2C8 (Homo sapiens, UniProt P10632); assay: Reversible P450 inhibition in HLM; format: biochemical; settings: human liver microsomes, pH 7.4, probe paclitaxel, substrate Paclitaxel
T2 construct: phosphate buffer (100 mM, pH 7.4) containing human liver microsomes (HLM); from tissue; host or cells: human liver microsomes
T2 sequence (P10632 1-490): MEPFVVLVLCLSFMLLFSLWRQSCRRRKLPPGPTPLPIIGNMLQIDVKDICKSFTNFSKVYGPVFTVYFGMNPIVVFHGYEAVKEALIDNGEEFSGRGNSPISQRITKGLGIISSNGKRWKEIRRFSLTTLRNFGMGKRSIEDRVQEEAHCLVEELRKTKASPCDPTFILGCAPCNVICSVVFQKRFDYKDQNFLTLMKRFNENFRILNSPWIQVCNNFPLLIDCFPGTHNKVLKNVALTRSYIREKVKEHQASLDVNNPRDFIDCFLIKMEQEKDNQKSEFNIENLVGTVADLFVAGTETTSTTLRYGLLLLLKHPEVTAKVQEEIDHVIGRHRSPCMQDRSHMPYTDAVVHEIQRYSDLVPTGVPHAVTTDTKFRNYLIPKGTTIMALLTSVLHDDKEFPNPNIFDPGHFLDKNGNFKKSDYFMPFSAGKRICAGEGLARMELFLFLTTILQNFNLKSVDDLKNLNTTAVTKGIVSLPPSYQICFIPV
Experimental: as §1

Row | Structure (SMILES) | AUC0–∞ in plasma and blood [1] | Cmax of radioactivity in blood [1] [µg/g] | Cmax of radioactivity in plasma [1] [µg/g] | Initial decrease of radioactivity in blood and plasma [1] | Radioactivity in plasma and blood at 336 hours [1] [ng/g] | Terminal clearance (CL) [1] | Terminal elimination half-life (t1/2) in plasma and blood [1] [h] | Tmax in blood and plasma [1] [h] | Volume of distribution (Vd) [1] [L/kg] | IC50 (CYP1A2) [µM] | IC50 (CYP2C8) [µM]
1 | Cc1ncsc1-c1ccc(C(C)NC(=O)C2CC(O)CN2C(=O)C(c2cc(N3CCC(CN4CCC(OC5CC(Oc6cc(N7C8CCC7CN(c7cc(-[14c]9[14cH][14cH][14cH][14cH][14c]9O)nnc7N)C8)ccn6)C5)CC4)CC3)no2)C(C)C)cc1 (centres unmarked) [14C-A947] | ~ 18 µg h/g | 1.13 | 1.22 | greater than 90% | 3 to 6 | ~ 5.8 mL/min/kg | 72 to 75 | 0.25 | 23.9 |  | 
2 | Cc1ncsc1-c1ccc(C(C)NC(=O)C2CC(O)CN2C(=O)C(c2cc(N3CCC(CN4CCC(OC5CC(Oc6cc(N7C8CCC7CN(c7cc(-c9ccccc9O)nnc7N)C8)ccn6)C5)CC4)CC3)no2)C(C)C)cc1 (centres unmarked) [A947] |  |  |  |  |  |  |  |  |  | > 10 | > 10
